Results taken from patent US20120309670A1, “7-(ALK-1'-ENYL)-2H-BENZO[B][1,4]DIOXEPIN-3(4H)-ONES AND THEIR USE IN FRAGRANCE APPLICATIONS” (Givaudan SA, priority 2010, published 2012).

Experiment: Odour Detection Threshold (ODT) / odour threshold
Conditions: for ODT: Odour Detection Threshold, table of compounds of Formula I

## CC/C=C/c1ccc2c(c1)OCC(=O)CO2 [Example 1, (1′E)-7-(But-1′-enyl)-2H-benzo[b][1,4]dioxepin-3(4H)-one]
  Odour threshold: 0.00157 ng/L air
  ODT: 0.00157 ng/L

## CC(C)=Cc1ccc2c(c1)OCC(=O)CO2 [Example 7, (1′E)-7-(2′-Methylprop-1′-enyl)-2H-benzo[b][1,4]dioxepin-3(4H)-one]
  Odour threshold: 0.42 ng/L air
  ODT: 0.42 ng/L

## CC(C)/C=C/c1ccc2c(c1)OCC(=O)CO2 [Example 3, (1′E)-7-(3′-Methylbut-1′-enyl)-2H-benzo[b][1,4]dioxepin-3(4H)-one]
  Odour threshold: 0.015 ng/L air
  ODT: 0.015 ng/L

## CC(C)(C)C/C=C/c1ccc2c(c1)OCC(=O)CO2 [Example 6, (1′E)-7-(4′,4′-Dimethylpent-1′-enyl)-2H-benzo[b][1,4]dioxepin-3(4H)-one]
  Odour threshold: 0.042 ng/L air
  ODT: 0.042 ng/L

## C/C=C/C=C/c1ccc2c(c1)OCC(=O)CO2 [Example 4, (1′E,3′E)-7-(Penta-1′,3′-dienyl)-2H-benzo[b][1,4]dioxepin-3(4H)-one]
  Odour threshold: 0.000141 ng/L air
  ODT: 0.000141 ng/L

## CC(C)C/C=C/c1ccc2c(c1)OCC(=O)CO2 [Example 2, (1′E)-7-(4′-Methylpent-1′-enyl)-2H-benzo[b][1,4]dioxepin-3(4H)-one]
  Odour threshold: 0.00025 ng/L air
  ODT: 0.00025 ng/L

## CCC/C=C/c1ccc2c(c1)OCC(=O)CO2 [Example 5, (1′E)-7-(Pent-1′-enyl)-2H-benzo[b][1,4]dioxepin-3(4H)-one]
  Odour threshold: 0.00314 ng/L air
  ODT: 0.00314 ng/L

## CCC(C)/C=C/c1ccc2c(c1)OCC(=O)CO2 (stereo not shown) [Example 8, (1′E)-7-(3′-Methylpent-1′-enyl)-2H-benzo[b][1,4]-dioxepin-3(4H)-one]
  Odour threshold: 0.021 ng/L air
  ODT: 0.021 ng/L
